Patent US20040102606A1, “Histone H2A -derived peptides useful in gene delivery” (priority 2003, published 2004)

Experiments:
COS-7 cells [1] = assay: Transfection assay (β-galactosidase reporter plasmid pCMVβ complexed with H2A-derived peptide); format: cell-based, African green monkey; settings: for transfection activity (β-galactosidase production): peptide at equimolar ratio to peak conditions of peptide 1 (36-mer), also 2× and ½× molar, FIG. 1; for transfection activity (DNA delivery) at the 17-mer's own optimal concentration: much higher molar ratio than 36-mer
Excerpt: The transfection assay is based on an in vitro assay previously described by J. H. Felgner et al. (Feigner et al., Proc. Natl. Acad. Sci., USA, 84:7413-7417, […]) with the following modifications: COS-7 (African green monkey SV40-transformed kidney cells, American Type Culture Collection, Rockville, Md.) were maintained in Dulbecco's modified eagle's medium (Biowhittaker, Walkersville, Md.) supplemented with 10% heat inactivated fetal bovine serum (Gemini Bio-products Inc., Calabras, Calif.), […] glutamine (Gemini Bio-products Inc., Calabras, Calif.), and 100U Penicillin-100 μg Streptomycin (Gemini Bio-products Inc., Calabras, Calif.). Other cells useful for transfection are 3T3, CHO-K1, HEPG2 and the like cell lines. The cells were harvested with 0.05% Trypsin-0.53 mM EDTA4Na (Life Technologies, Gaithersburg, Md.), pelleted, resuspended in their usual culture medium, diluted in 0.85% NaCl (Sigma, St. Louis, Mo.), and counted in a Coulter Z1® apparatus (Coulter Corporation, Miami, Fla.). COS-7 cells were plated in 96-well flat bottom tissue culture treated polystyrene plates (Corning Inc., Corning, N.Y.) at a density of […] cells per well and grown overnight in a humidified incubator at 37° C. in the presence of 4% CO2. Culture medium was aspirated from the overnight cultures of COS-7 cells, and the cells were overlaid with 75 μl/well of the binary DNA-histone H2A-derived peptide complex, or the corresponding controls. Four hours after transfection, 37.5 μl of Opti-MEM®1, a Tris-Acetate-based (Life Technologies, Gaithersburg, Md.) containing 30% heat inactivated fetal bovine serum (Gemini Bio-products Inc., Celebres, Calif.) was added to each well. Twenty-four hours post-transfection […] of Opti-MEM®1 containing 10% heat inactivated fetal bovine serum (Gemini Bio-products Inc., Celebres, Calif.) was added to each well Forty-eight hours post-transfection, all of the medium in each well was removed. Fifty μl of lysis buffer (0.1% Triton X-100, […] Tris pH 8.0) was added to each well. The plates were then frozen at −70° C. and thawed once. Fifty μl of phosphate-buffered saline (PBS) pH 7.4 was added to each well except for the last column The last column was reserved for a β-galactosidase standard curve. […] In the presence of β-galactosidase, D-galactose is released from CPRG, yielding chlorophenol red; the red reaction product was used to quantitate the amount of β-galactosidase produced. […] The plates were read in a Thermomax plate reader (Molecular Devices Incorporated, Sunnyvale, Calif.) at 575 nm. The optical density values obtained in test wells were then compared to those in the column containing the β-galactosidase standard and the result was expressed as the quantity of β-galactosidase produced per well. […]

COS7 cells = settings: polymers in equimolar ratios to their representation in histone H2A; cited from earlier work
Circular dichroism = format: physicochemical; settings: 70 μM in 120 mM Tris acetate pH 8; 200-260 nm
Procedure: Circular dichroism experiments were performed using a Circular Dichroism Spectrometer (model 62DS) at wavelengths ranging from 200-260 nm In all cases, three readings were taken of a 300 μl sample of 70 μM histone H2A or 70 μM histone H2A-derived peptide in 120 mM Tris acetate pH 8. The average reading for every wavelength tested is plotted as a function of degrees of ellipticity.
Circular dichroism of peptide was performed on four samples: the full length histone H2A molecule, peptide 1 (36-mer), peptide P1 (17-mer) and peptide 12.

COS-7 cells [2] = assay: X-gal staining of transfected cells; format: cell-based, African green monkey
Excerpt: The difference between one of the effective peptides (amino acids 1-36) and the peptide composed of the first 25 amino acids is the inclusion of an α-helical motif located between amino acids 27-35.

Row | Molecule | transfection activity (β-galactosidase production) (COS-7 cells [1]) | transfection (β-galactosidase reporter plasmid) (COS7 cells) | further results
1 | KTRSSRAGLQFPVGRVHRIIRK [Peptide 5R] | significant activity |  | 
2 | NCCCCNCCCN [spermidine] |  | ineffective | 
3 | NCCCNCCCCNCCCN [spermine] |  | ineffective | 
4 | P1: 17-mer that represents amino acids 18-34 of the histone H2A molecule (RSSRAGLQFPVGRVHRL; UniProt P0C0S8 18-34, looked up, fragment) [Peptide P1] | only background activity |  | circular dichroism, α-helical structure (minima at 208 and 222 nm) (Circular dichroism): some degree of minima at around 208; COS-7 cells transfected (X-gal staining) (COS-7 cells [2]): less than 1%; transfection activity (DNA delivery) at the 17-mer's own optimal concentration (COS-7 cells [1]; FIG. 2): effective in DNA transfection and delivery; transfection activity (DNA delivery) at the 17-mer's own optimal concentration (COS-7 cells [1]; FIG. 2, listed as 17-mer): active in DNA delivery
